Measured values reported in patent US12624031B2, “Inhibitors of ubiquitin specific peptidase 22 (USP22) and uses thereof for treating diseases and disorders” (Northwestern University, priority 2022, dated 2026).

How the values were obtained:
[1] = tested on: LLC1 tumors in RAG−/− mice; experiment: LLC1 tumor growth in RAG−/− mice; format: in vivo; conditions: treated for 3 days at day 15 of tumor growth
Method: FIG. 8: Usp22i-S02 inhibits tumor growth in vitro and in vivo. A, In vitro counts of LLC1 after treatment with Usp22i-S02 under various concentrations for 24 hours (n=2). B, In vitro viability of LLC1 after treatment with Usp22i-S02 under various concentrations for 24 hours (n=2). C, In vitro relative growth of LLC1 cells treated with 10 ug/ml of Usp22i-S02 relative to DMSO treated control for 7 days via OD600 (n=4). D, Growth curve of 1 million subcutaneously injected LLC1 cells into RAG−/− mice treated for 3 days Usp22i-S02 relative to DMSO control injections at day 15 of tumor growth (n=4). C-D, Two-way ANOVA with Sidaks's multiple comparisons between rows relative to control was performed to determine statistical significance. All data are presented as mean±stdev. NS, not significant. *P<0.05, **P<0.01, ***P<0.001, ****P<0.0001.
As Usp22 is also an important oncogene, we were interested in the potential dual-therapeutic function of Usp22i-S02.

[2] = tested on: Foxp3 in iTreg cells; experiment: in vitro dose response study in WT and Usp22-null iTreg cells; format: cell-based, murine
Method: FIG. 6: Usp22i-S02 halts Usp22-mediated Foxp3 deubiqutination. A, Graphical representation of Foxp3 MFI change in WT versus 22KO iTreg cells treated with various doses of Usp22i-S02 (n=3). B, Representative histogram of Foxp3 MFI level in iTreg cells as Usp22 inhibitor concentration increases from 0-20 μg/mL. C, Cell survival of iTreg cells treated with various doses of Usp22i-S02 (n=3). D, FOXP3 and USP22 protein level in WT and 22KO mice treated with 10 μg/mL Usp22i-S02. E-F, Graphical and representative data of Foxp3 MFI of human Treg cells treated with various doses of Usp22i-S02 (n=3). G, Graphical representation of Foxp3 MFI in WT, Usp21-null, and Usp22-null Treg cells treated with Usp22i-S02 at 10 μg/mL (n=3). H, FOXP3 and USP22 protein degradation of cycloheximide (10 μg/mL) treated iTreg cells with or without the addition of 10 μg/mL of Usp22i-S02. I-J, Endogenous DUB assay IP in iTreg cells of USP22 with FOXP3 under increasing concentrations of Usp22i-S02. K, Foxp3 mRNA level in iTreg cells as Usp22 inhibitor concentration increases from 0-20 μg/mL (n=3). L, FOXP3 and USP22 level in WT iTreg cells with or without 20 μg/mL Usp22 inhibitor treated with 20 μM MG132. M, Graphical representation of the percentage of decrease of Foxp3 MFI in either WT or Usp22-null nTreg cells placed in low glucose conditions with or without the addition of 10 μg/mL of Usp22i-S02 (n=7-8). N, Graphical representation of the percentage of decrease of Foxp3 MFI in WT nTreg cells placed in hypoxic or low amino acid conditions with or without the addition of 10 μg/mL of Usp22i-S02 (n=3-5). G, Two-tailed unpaired t-test comparing within groups was performed to determine statistical significance. K, One-way ANOVA with Dunnet's multiple comparisons between rows relative to control was performed to determine statistical significance. M-N, Two-way ANOVA with Sidak's multiple comparisons between rows was performed to determine statistical significance. All data are presented as mean±stdev. NS, not significant. *P<0.05, **P<0.01, ***P<0.001, ****P<0.0001.
After initial screening, we ran an in vitro dose response study on compound S02, dubbed Usp22i-S02, in both WT and Usp22-null iTreg cells (FIG. 6A-C).

[3] = tested on: polarized CD4+ T-regulatory cells; experiment: cytotoxicity in polarized CD4+ T-regulatory cells; format: cell-based, murine; conditions: 156 ng/mL to 5 ug/mL, compared to DMSO controls
Method: FIG. 2: Cytotoxicity of compounds from 156 ng/mL to 5 ug/mL concentration range in polarized CD4+ T-regulatory cells. Murine CD4+ T-cells were isolated and polarized in vitro to T-regulatory cells using 5 ng/mL IL-2, 2 μg/mL anti-IL-4, 2 μg/mL anti-IFNγ, and 1 ng/mL TGFβ. After 48 hours, the inhibitors were added to the cells.
We then synthesized all 17 compounds and validated their cytotoxicity to regulatory T cells. To this end, mouse CD4 T cells were polarized to FoxP3 Tregs for two days, followed by treatment of the cells with each of the compounds at the doses upto 5 ug/ml. […] In addition, the rest of the compounds had poor solubility in DMSO, and were not further tested.

N#Cc1c2c(c(Nc3ccccc3)n3c1nc1ccccc13)CCCC2 [USP22i-S02, 11-anilino-7,8,9,10-tetrahydrobenzimidazo[1,2-b]isoquinoline-6-carbonitrile]
tumor growth in Rag−/− mice with established tumors [1]: small but statistically significant decrease in tumor growth | viability of iTreg cells ([2]; 10 μg/mL): little effect on viability | FOXP3 degradation with MG132 ([2]; 20 μg/mL inhibitor, 20 μM MG132): halted by MG132 protease inhibition | FOXP3 degradation in cycloheximide treated iTreg cells ([2]; CHX 10 μg/mL, 10 μg/mL inhibitor): enhanced FOXP3 degradation | effect on iTreg cells lacking Usp21 ([2]; Usp21-null, 10 μg/mL): full effect | FOXP3 levels in murine Treg cells lacking Usp22 ([2]; Usp22-null, in vivo and in vitro): minimal effect on FOXP3 levels | Foxp3 under glucose starvation in Treg cells lacking Usp22 ([2]; Usp22-null, low glucose, 10 μg/mL): no effect on Foxp3 | Foxp3 stability under glucose starvation ([2]; WT Treg cells, low glucose, 10 μg/mL): significantly diminished Foxp3 stability | Foxp3 MFI and protein level ([2]; WT iTreg cells, 10 μg/mL): decreases in Foxp3 MFI and protein level comparable to Usp22-null iTreg cells | Foxp3 stability under hypoxic and amino acid starvation conditions ([2]; WT nTreg cells, 10 μg/mL): reduces Foxp3 stability | Foxp3 transcription ([2]; iTreg cells, 0-20 μg/mL): decreased Foxp3 transcription | FOXP3 ubiquitination ([2]; iTreg cells, endogenous DUB assay IP): increased FOXP3 ubiquitination | cytotoxicity to Tregs [3]: does not show severe cytotoxicity
